According to the NIST ThermoML archive (doi:10.1021/acs.jced.8b00812):

Settings: Liquid; for viscosity: Capillary tube (Ostwald / Ubbelohde) method; for mass density: Vibrating tube method

CCCCCO [pentan-1-ol]
Settings	mass density [kg/m3]	viscosity [mPa·s]
298.15 K, 2000 kPa	813	3.59
298.15 K, 4000 kPa	814.4	3.66
298.15 K, 6000 kPa	815.8	3.732
298.15 K, 8010 kPa	817.1	3.796
298.15 K, 10000 kPa	818.5	3.869
298.15 K, 13000 kPa	820.4	3.975
298.15 K, 16000 kPa	822.3	4.081
298.15 K, 19010 kPa	824.1	4.192
298.15 K, 22000 kPa	825.9	4.299
298.15 K, 25000 kPa	827.6	4.409
298.15 K, 27990 kPa	829.4	4.507
298.15 K, 29980 kPa	830.4	4.577
303.15 K, 19000 kPa	820.3	3.757
303.15 K, 27980 kPa	825.6	4.041
303.16 K, 1980 kPa	808.8	3.219
303.16 K, 3980 kPa	810.2	3.282
303.16 K, 6010 kPa	811.7	3.346
303.16 K, 8020 kPa	813	3.41
303.16 K, 10030 kPa	814.4	3.474
303.16 K, 12990 kPa	816.4	3.567
303.16 K, 15980 kPa	818.4	3.662
303.16 K, 22010 kPa	822.1	3.852
303.16 K, 25000 kPa	823.9	3.947
303.16 K, 29990 kPa	826.7	4.105
313.15 K, 1990 kPa	800.6	2.438
313.15 K, 4000 kPa	802.2	2.486
313.15 K, 5980 kPa	803.7	2.533
313.15 K, 7980 kPa	805.1	2.581
313.15 K, 10020 kPa	806.6	2.629
313.15 K, 13010 kPa	808.7	2.701
313.15 K, 19020 kPa	812.8	2.845
313.15 K, 21980 kPa	814.7	2.916
313.15 K, 30020 kPa	819.6	3.109
313.16 K, 15980 kPa	810.8	2.772
313.16 K, 24990 kPa	816.6	2.988
313.16 K, 28000 kPa	818.4	3.06
323.15 K, 2000 kPa	793.5	1.833
323.15 K, 4000 kPa	795	1.866
323.15 K, 6000 kPa	796.7	1.901
323.15 K, 8000 kPa	798.2	1.935
323.15 K, 10000 kPa	799.6	1.969
323.15 K, 13000 kPa	801.9	2.022
323.15 K, 16000 kPa	804	2.078
323.15 K, 19000 kPa	806.1	2.133
323.15 K, 22000 kPa	808.2	2.189
323.15 K, 25000 kPa	810.2	2.244
323.15 K, 27990 kPa	812.1	2.299
323.15 K, 29990 kPa	813.4	2.335

CCCCO [butan-1-ol]
Settings	mass density [kg/m3]	viscosity [mPa·s]
298.12 K, 2010 kPa	806.8	2.608
298.12 K, 3910 kPa	808.2	2.657
298.12 K, 6020 kPa	809.8	2.708
298.12 K, 8030 kPa	811.2	2.752
298.12 K, 9910 kPa	812.5	2.797
298.12 K, 16020 kPa	816.6	2.94
298.12 K, 19030 kPa	818.5	3.018
298.12 K, 22000 kPa	820.4	3.092
298.12 K, 25020 kPa	822.3	3.166
298.12 K, 28000 kPa	824	3.237
298.12 K, 30010 kPa	825.1	3.287
298.13 K, 13010 kPa	814.6	2.867
303.15 K, 2010 kPa	803.3	2.351
303.15 K, 4000 kPa	804.8	2.393
303.15 K, 5980 kPa	806.3	2.436
303.15 K, 8010 kPa	807.8	2.479
303.15 K, 9990 kPa	809.2	2.522
303.15 K, 12990 kPa	811.3	2.586
303.15 K, 15990 kPa	813.3	2.65
303.15 K, 22010 kPa	817.3	2.779
303.15 K, 25010 kPa	819.1	2.843
303.15 K, 27970 kPa	820.9	2.912
303.15 K, 29990 kPa	822.1	2.957
303.16 K, 19000 kPa	815.3	2.714
313.15 K, 10020 kPa	801.8	1.969
313.15 K, 12980 kPa	803.9	2.019
313.15 K, 22020 kPa	810.2	2.182
313.15 K, 25010 kPa	812.2	2.237
313.16 K, 1990 kPa	795.5	1.832
313.16 K, 3980 kPa	797.1	1.868
313.16 K, 5990 kPa	798.7	1.902
313.16 K, 7980 kPa	800.2	1.935
313.16 K, 15980 kPa	806.1	2.073
313.16 K, 19010 kPa	808.2	2.125
313.16 K, 27990 kPa	814.1	2.292
313.16 K, 29990 kPa	815.3	2.329
323.14 K, 2000 kPa	787.9	1.421
323.14 K, 3920 kPa	789.6	1.446
323.14 K, 6030 kPa	791.3	1.473
323.14 K, 8000 kPa	792.9	1.499
323.14 K, 10020 kPa	794.5	1.525
323.14 K, 13040 kPa	796.9	1.565
323.14 K, 16050 kPa	799.2	1.603
323.14 K, 19000 kPa	801.3	1.646
323.14 K, 21990 kPa	803.4	1.684
323.14 K, 24970 kPa	805.5	1.723
323.14 K, 28000 kPa	807.5	1.759
323.14 K, 29970 kPa	808.8	1.785

CCCCCCCCO [octan-1-ol]
Settings	mass density [kg/m3]	viscosity [mPa·s]
298.15 K, 2000 kPa	823.6	7.363
298.15 K, 4010 kPa	824.8	7.542
298.15 K, 6000 kPa	826	7.702
298.15 K, 8000 kPa	827.2	7.865
298.15 K, 10000 kPa	828.4	8.031
298.15 K, 13010 kPa	830.1	8.3
298.15 K, 16010 kPa	831.8	8.568
298.15 K, 18990 kPa	833.4	8.825
298.15 K, 22010 kPa	835	9.112
298.15 K, 25010 kPa	836.6	9.397
298.15 K, 28010 kPa	838.3	9.668
298.15 K, 30010 kPa	839.3	9.866
303.15 K, 1990 kPa	819.4	6.327
303.15 K, 3990 kPa	820.6	6.481
303.15 K, 5980 kPa	821.9	6.632
303.15 K, 10010 kPa	824.4	6.941
303.15 K, 16020 kPa	827.9	7.4
303.15 K, 19030 kPa	829.7	7.63
303.15 K, 25000 kPa	833	8.087
303.15 K, 29980 kPa	835.6	8.468
303.16 K, 7980 kPa	823.1	6.785
303.16 K, 13000 kPa	826.2	7.169
303.16 K, 22010 kPa	831.3	7.858
303.16 K, 28000 kPa	834.6	8.316
313.15 K, 1970 kPa	812.3	4.516
313.15 K, 4000 kPa	813.6	4.627
313.15 K, 6010 kPa	815	4.737
313.15 K, 8000 kPa	816.3	4.846
313.15 K, 10010 kPa	817.5	4.955
313.15 K, 13030 kPa	819.4	5.12
313.15 K, 15980 kPa	821.2	5.281
313.15 K, 18990 kPa	823	5.446
313.15 K, 21990 kPa	824.8	5.61
313.15 K, 25000 kPa	826.5	5.774
313.15 K, 27980 kPa	828.2	5.937
313.15 K, 29990 kPa	829.3	6.047
323.15 K, 2010 kPa	805.6	3.262
323.15 K, 4010 kPa	807	3.348
323.15 K, 6010 kPa	808.4	3.427
323.15 K, 8000 kPa	809.7	3.499
323.15 K, 10010 kPa	811.1	3.573
323.15 K, 13020 kPa	813	3.688
323.15 K, 16020 kPa	814.9	3.797
323.15 K, 19010 kPa	816.8	3.91
323.15 K, 22000 kPa	818.6	4.03
323.15 K, 25010 kPa	820.4	4.149
323.15 K, 28010 kPa	822.1	4.264
323.15 K, 30020 kPa	823.3	4.343
